Laboratory results published in patent publication US20250282799A1, “SUBSTITUTED PYRIDO[4,3-d]PYRIMIDINES AS KRAS MODULATORS” (Alterome Therapeutics, Inc., priority 2023, published 2025).

Test system: KRAS G12V dependent lung adenocarcinoma cell line, NCI-H441
Experiment: Cellular pERK (Thr202/Tyr204) FRET/HTRF assay
Assay type: cell-based
Conditions: Homo sapiens, NCI-H441, cellular pERK (Thr202/Tyr204) HTRF, NCI-H441 cells
In short: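 Adherent NCI-H441 cells, plated the previous night, receive test compound for one hour at 37 °C. They are then lysed with a buffer containing phosphatase inhibitors and incubated at room temperature with Eu3+-cryptate and d2 labelled anti-pERK antibodies. HTRF signal gives IC50 by curve fitting.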

Row | IC50 | Compound
1 | < 0.05 µM | [2H]C([2H])(F)Oc1c(F)ccc2cc(N)cc(-c3ncc4c(N5CCOC[C@H]6[C@H](F)[C@H]65)nc(OC[C@]56CC7(CC7)CN5CCC65CC5)nc4c3F)c12 [Example 228, 4-(2-(((R)-dihydro-5′H-dispiro[cyclopropane-1,1′-pyrrolizine-6′,1″- cyclopropan]-7a′(7′H)-yl)methoxy)-8-fluoro-4-((1S,7S,8S)-8-fluoro-5-oxa-2-azabicyclo[5.1.0]octan-2-yl)pyrido[4,3-d]pyrimidin-7-yl)-6-fluoro-5-(fluoromethoxy-d2)naphthalen-2-amine]
2 | 0.5 to 10 µM | [2H]C([2H])(Oc1nc(N2CCOC[C@H]3[C@H](F)[C@H]32)c2c(OC)nc(-c3cccc4ccc(F)c(C#C)c34)c(F)c2n1)[C@@]12CCCN1C[C@H](F)C2 [Example 235, (1S,7S,8S)-2-(7-(8-ethynyl-7-fluoronaphthalen-1-yl)-8-fluoro-2-(((2R,7aS)-2-fluorotetrahydro-1H-pyrrolizin-7a(5H)-yl)methoxy-d2)-5-methoxypyrido[4,3-d]pyrimidin-4-yl)-8-fluoro-5-oxa-2-azabicyclo[5.1.0]octane]
3 | 0.5 to 10 µM | [2H]C([2H])(Oc1nc(N2CCOC[C@@H]3[C@@H](F)[C@@H]32)c2c(OC)nc(-c3cccc4ccc(F)c(C#C)c34)c(F)c2n1)[C@@]12CCCN1C[C@H](F)C2 [Example 236, (1R,7R,8R)-2-(7-(8-ethynyl-7-fluoronaphthalen-1-yl)-8-fluoro-2-(((2R,7aS)-2-fluorotetrahydro-1H-pyrrolizin-7a(5H)-yl)methoxy-d2)-5-methoxypyrido[4,3-d]pyrimidin-4-yl)-8-fluoro-5-oxa-2-azabicyclo[5.1.0]octane]
4 | < 0.05 µM | C#Cc1c(F)ccc2cc(N)cc(-c3ncc4c(N5CCOC[C@H]6[C@H](F)[C@H]65)nc(OC[C@@]56CCC(C)(C)N5C[C@H](F)C6)nc4c3F)c12 [Example 239, 5-ethynyl-6-fluoro-4-(8-fluoro-2-(((2R,7aS)-2-fluoro-5,5-dimethyltetrahydro-1H-pyrrolizin-7a(5H)-yl)methoxy)-4-((1S,7S,8S)-8-fluoro-5-oxa-2-azabicyclo[5.1.0]octan-2-yl)pyrido[4,3-d]pyrimidin-7-yl)naphthalen-2-amine]
5 | 0.5 to 10 µM | [2H]C([2H])(Oc1nc(N2CCOCC3C2C3(Cl)Cl)c2cnc(-c3cc(N)cc4ccc(F)c(C#C)c34)c(F)c2n1)[C@@]12CCCN1C[C@H](F)C2 (stereo partly drawn) [Example 240, 4-(4-(8,8-dichloro-5-oxa-2-azabicyclo[5.1.0]octan-2-yl)-8-fluoro-2-(((2R,7aS)-2-fluorotetrahydro-1H-pyrrolizin-7a(5H)-yl)methoxy-d2)pyrido[4,3-d]pyrimidin-7-yl)-5-ethynyl-6-fluoronaphthalen-2-amine]
6 | < 0.05 µM | [2H]C([2H])(Oc1nc(N2CCOC[C@H]3[C@H](F)[C@H]32)c2c(OC)nc(-c3cc(O)cc4ccc(F)c(C#C)c34)c(F)c2n1)[C@@]12CCCN1C[C@H](F)C2 [Example 241, 5-ethynyl-6-fluoro-4-(8-fluoro-4-((1S,7S,8S)-8-fluoro-5-oxa-2-azabicyclo[5.1.0]octan-2-yl)-2-(((2R,7aS)-2-fluorotetrahydro-1H-pyrrolizin-7a(5H)-yl)methoxy-d2)-5-methoxypyrido[4,3-d]pyrimidin-7-yl)naphthalen-2-ol]
7 | < 0.05 µM | C#Cc1c(F)ccc2cc(N)cc(-c3ncc4c(N5CCOC[C@H]6[C@H](F)[C@H]65)nc(OC[C@@]56C=C(C)CN5CCC65CC5)nc4c3F)c12 [Example 244, 5-ethynyl-6-fluoro-4-(8-fluoro-4-((1S,7S,8S)-8-fluoro-5-oxa-2-azabicyclo[5.1.0]octan-2-yl)-2-(((S)-6′-methyl-2′,3′-dihydrospiro[cyclopropane-1,1′-pyrrolizin]-7a′(5′H)-yl)methoxy)pyrido[4,3-d]pyrimidin-7-yl)naphthalen-2-amine]
8 | 0.05 to 0.5 µM | C#Cc1c(F)ccc2cccc(-c3ncc4c(N5CCOC[C@H]6[C@H](F)[C@H]65)nc(OC[C@]56C[C@@H](F)CN5C[C@@H](CNC(C)=O)C6)nc4c3F)c12 [Example 245, N-(((2R,6R,7aS)-7a-(((7-(8-ethynyl-7-fluoronaphthalen-1-yl)-8-fluoro-4-((1S,7S,8S)-8-fluoro-5-oxa-2-azabicyclo[5.1.0]octan-2-yl)pyrido[4,3-d]pyrimidin-2-yl)oxy)methyl)-6-fluorohexahydro-1H-pyrrolizin-2-yl)methyl)acetamide]
9 | 0.5 to 10 µM | C#Cc1c(F)ccc2cccc(-c3ncc4c(N5CCOC[C@H]6[C@H](F)[C@H]65)nc(OC[C@]56C[C@@H](F)CN5C[C@@H](CN)C6)nc4c3F)c12 [Example 246, ((2R,6R,7aS)-7a-(((7-(8-ethynyl-7-fluoronaphthalen-1-yl)-8-fluoro-4-((1S,7S,8S)-8-fluoro-5-oxa-2-azabicyclo[5.1.0]octan-2-yl)pyrido[4,3-d]pyrimidin-2-yl)oxy)methyl)-6-fluorohexahydro-1H-pyrrolizin-2-yl)methanamine]
10 | < 0.05 µM | [2H]c1cc2cc(N)cc(-c3ncc4c(N5CCOC[C@H]6[C@H](F)[C@H]65)nc(OC([2H])([2H])[C@@]56CCCN5C[C@H](F)C6)nc4c3F)c2c(C#C)c1F [Example 256, 5-ethynyl-6-fluoro-4-(8-fluoro-4-((1S,7S,8S)-8-fluoro-5-oxa-2-azabicyclo[5.1.0]octan-2-yl)-2-(((2R,7aS)-2-fluorotetrahydro-1H-pyrrolizin-7a(5H)-yl)methoxy-d2)pyrido[4,3-d]pyrimidin-7-yl)naphthalen-7-d-2-amine]
11 | 0.05 to 0.5 µM | C#Cc1c(F)ccc2cc(N)cc(-c3ncc4c(N5CCOC[C@H]6[C@H](F)[C@H]65)nc(OC[C@]56C[C@@H](F)CN5C[C@@H](CNC(C)=O)C6)nc4c3F)c12 [Example 257, N-(((2R,6R,7aS)-7a-(((7-(3-amino-8-ethynyl-7-fluoronaphthalen-1-yl)-8-fluoro-4-((1S,7S,8S)-8-fluoro-5-oxa-2-azabicyclo[5.1.0]octan-2-yl)pyrido[4,3-d]pyrimidin-2-yl)oxy)methyl)-6-fluorohexahydro-1H-pyrrolizin-2-yl)methyl)acetamide]
12 | 0.05 to 0.5 µM | C#Cc1c(F)ccc2cc(N)cc(-c3ncc4c(N5CCOC[C@H]6[C@H](F)[C@H]65)nc(OC[C@]56C[C@@H](F)CN5C[C@@H](CN)C6)nc4c3F)c12 [Example 258, 4-(2-(((2R,6R,7aS)-2-(aminomethyl)-6-fluorotetrahydro-1H-pyrrolizin-7a(5H)-yl)methoxy)-8-fluoro-4-((1S,7S,8S)-8-fluoro-5-oxa-2-azabicyclo[5.1.0]octan-2-yl)pyrido[4,3-d]pyrimidin-7-yl)-5-ethynyl-6-fluoronaphthalen-2-amine]
13 | < 0.05 µM | C#Cc1c(F)ccc2cc(N)cc(-c3ncc4c(N5CCOC[C@H]6[C@H](F)[C@H]65)nc(OC[C@@]56CC[C@H](C)N5C[C@H](F)C6)nc4c3F)c12 [Example 259, 5-Ethynyl-6-fluoro-4-(8-fluoro-2-(((2R,5S,7aS)-2-fluoro-5-methyltetrahydro-1H-pyrrolizin-7a(5H)-yl)methoxy)-4-((1S,7S,8S)-8-fluoro-5-oxa-2-azabicyclo[5.1.0]octan-2-yl)pyrido[4,3-d]pyrimidin-7-yl)naphthalen-2-amine]
14 | < 0.05 µM | [2H]C([2H])(Oc1nc(N2CCOC[C@H]3[C@H](F)[C@H]32)c2cnc(-c3cc(N)cc4ccc(F)c(C#C)c34)cc2n1)[C@@]12CCCN1C[C@H](F)C2 [Example 261, 5-ethynyl-6-fluoro-4-(4-((1S,7S,8S)-8-fluoro-5-oxa-2-azabicyclo[5.1.0]octan-2-yl)-2-(((2R,7aS)-2-fluorotetrahydro-1H-pyrrolizin-7a(5H)-yl)methoxy-d2)pyrido[4,3-d]pyrimidin-7-yl)naphthalen-2-amine]
15 | < 0.05 µM | C#Cc1c(F)ccc2cc(N)cc(-c3ncc4c(N5CCOC[C@H]6[C@H](F)[C@H]65)nc(OC[C@@]56CCCN5C(C)(C)[C@H](F)C6)nc4c3F)c12 [Example 262, 5-ethynyl-6-fluoro-4-(8-fluoro-2-(((2R,7aS)-2-fluoro-3,3-dimethyltetrahydro-1H-pyrrolizin-7a(5H)-yl)methoxy)-4-((1S,7S,8S)-8-fluoro-5-oxa-2-azabicyclo[5.1.0]octan-2-yl)pyrido[4,3-d]pyrimidin-7-yl)naphthalen-2-amine]
16 | 0.05 to 0.5 µM | [2H]C([2H])(Oc1nc(N2CCOC[C@H]3[C@H](F)[C@H]32)c2cnc(-c3cc(NC(C)=O)cc4ccc(F)c(C#C)c34)c(F)c2n1)[C@@]12CCCN1C[C@H](F)C2 [Example 263, N-(5-ethynyl-6-fluoro-4-(8-fluoro-4-((1S,7S,8S)-8-fluoro-5-oxa-2-azabicyclo[5.1.0]octan-2-yl)-2-(((2R,7aS)-2-fluorotetrahydro-1H-pyrrolizin-7a(5H)-yl)methoxy-d2)pyrido[4,3-d]pyrimidin-7-yl)naphthalen-2-yl)acetamide]
17 | < 0.05 µM | [2H]c1cc(F)c(C#C)c2c(-c3ncc4c(N5CCOC[C@H]6[C@H](F)[C@H]65)nc(OC([2H])([2H])[C@@]56CCCN5C[C@H](F)C6)nc4c3F)cc(N)cc12 [Example 264, 5-ethynyl-6-fluoro-4-(8-fluoro-4-((1S,7S,8S)-8-fluoro-5-oxa-2-azabicyclo[5.1.0]octan-2-yl)-2-(((2R,7aS)-2-fluorotetrahydro-1H-pyrrolizin-7a(5H)-yl)methoxy-d2)pyrido[4,3-d]pyrimidin-7-yl)naphthalen-8-d-2-amine]
18 | < 0.05 µM | [2H]C([2H])(Oc1nc(N2CCOC[C@H]3[C@H](F)[C@H]32)c2cnc(-c3cc(N)cc4cccc(C#C)c34)c(F)c2n1)[C@@]12CCCN1C[C@H](F)C2 [Example 268, 5-ethynyl-4-(8-fluoro-4-((1S,7S,8S)-8-fluoro-5-oxa-2-azabicyclo[5.1.0]octan-2-yl)-2-(((2R,7aS)-2-fluorotetrahydro-1H-pyrrolizin-7a(5H)-yl)methoxy-d2)pyrido[4,3-d]pyrimidin-7-yl)naphthalen-2-amine]
